From article PMC8162404, “Proteomimetic surface fragments distinguish targets by function” (Chemical Science, 2020) come the findings set out here.

The target of assay [1] is T1, Gal-1 (Homo sapiens, UniProt P09382).
T1 construct: made in house; host or cells: E. coli BL21(DE3)
Put plainly: Pull-down assay with immobilized protein and LSM libraries. In kind it is binding. As to conditions: H12 library; 1:1 binding assumed; read-out: Surface mapping KD (apparent). The method in brief:
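His-tagged protein immobilized on Co-NTA resin (64 µM) in 20 mM HEPES pH 7.4, 150 mM NaCl, equilibrated 30 min at room temperature with foldamer LSM sublibraries at equimolar total concentration. Unbound fractions quantified by HPLC-MS versus protein-free resin control; apparent KD assumes 1:1 binding.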

The target of assay [2] is T2, S100B (Homo sapiens, UniProt P04271).
T2 construct: made in house; host or cells: Escherichia coli BL21(DE3)
T2 sequence (P04271 1-92): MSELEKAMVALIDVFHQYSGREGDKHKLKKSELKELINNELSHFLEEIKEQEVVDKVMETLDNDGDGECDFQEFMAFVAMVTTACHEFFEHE
The assay is described as above. The format is binding. As to conditions: H12 library; 1:1 binding assumed; read-out: Surface mapping KD (apparent). The method in brief:
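Buffers were HEPES pH 7.4 with 150 mM NaCl, plus 1 mM TCEP and 1 mM CaCl2 (50 mM HEPES) for S100A4 and S100B, 1 mM TCEP for Gal-1, and no additive for RecQ-WH. Immobilized protein at 64 µM was equilibrated 30 min with the LSM sublibrary, and unbound probes were measured by LC-MS.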

T1 sequence (P09382 whole entry): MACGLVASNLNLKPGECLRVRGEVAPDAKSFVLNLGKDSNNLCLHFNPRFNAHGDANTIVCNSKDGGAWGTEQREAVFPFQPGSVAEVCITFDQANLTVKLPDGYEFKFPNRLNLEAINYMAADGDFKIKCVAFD

For `NC(=O)[C@H]1CCC[C@@H]1NC(=O)[C@H]1CCC[C@@H]1NC(=O)C[C@H](CCC(=O)O)NC(=O)[C@H]1CCC[C@@H]1NC(=O)[C@H]1CCC[C@@H]1NC(=O)C[C@H](Cc1ccccc1)NC(=O)[C@H]1CCC[C@@H]1NC(=O)[C@H]1CCC[C@@H]1N` [H12 FE], the values for the Kd in assay [1] and in assay [2] were 198 µM and 391 µM, respectively.
Consider `C[C@@H](CC(=O)N[C@H]1CCC[C@@H]1C(=O)N[C@H]1CCC[C@@H]1C(=O)N[C@@H](CCCCN)CC(=O)N[C@H]1CCC[C@@H]1C(=O)N[C@H]1CCC[C@@H]1C(N)=O)NC(=O)[C@H]1CCC[C@@H]1NC(=O)[C@H]1CCC[C@@H]1N` [H12 AK], for which the values for the Kd in assay [1] and in assay [2] were 303 µM and 380 µM, respectively.
Turning to `CC(C)[C@@H](CC(=O)N[C@H]1CCC[C@@H]1C(=O)N[C@H]1CCC[C@@H]1C(=O)N[C@@H](CCCCN)CC(=O)N[C@H]1CCC[C@@H]1C(=O)N[C@H]1CCC[C@@H]1C(N)=O)NC(=O)[C@H]1CCC[C@@H]1NC(=O)[C@H]1CCC[C@@H]1N` [H12 VK], the Kd in assay [1] worked out at 430 µM; in assay [2] it was 185 µM.
On to `NC(=O)C[C@@H](CC(=O)N[C@H]1CCC[C@@H]1C(=O)N[C@H]1CCC[C@@H]1C(N)=O)NC(=O)[C@H]1CCC[C@@H]1NC(=O)[C@H]1CCC[C@@H]1NC(=O)C[C@H](Cc1c[nH]c2ccccc12)NC(=O)[C@H]1CCC[C@@H]1NC(=O)[C@H]1CCC[C@@H]1N` [H12 WN], for which the figures for the Kd in assay [1] and in assay [2] were 270 µM and 55 µM, respectively.
The corresponding values for `NC(=O)C[C@@H](CC(=O)N[C@H]1CCC[C@@H]1C(=O)N[C@H]1CCC[C@@H]1C(N)=O)NC(=O)[C@H]1CCC[C@@H]1NC(=O)[C@H]1CCC[C@@H]1NC(=O)C[C@H](Cc1ccc(O)cc1)NC(=O)[C@H]1CCC[C@@H]1NC(=O)[C@H]1CCC[C@@H]1N` [H12 YN] are 181 µM and 237 µM.
The corresponding values for `C[C@@H](O)[C@@H](CC(=O)N[C@H]1CCC[C@@H]1C(=O)N[C@H]1CCC[C@@H]1C(N)=O)NC(=O)[C@H]1CCC[C@@H]1NC(=O)[C@H]1CCC[C@@H]1NC(=O)C[C@H](CCCNC(=N)N)NC(=O)[C@H]1CCC[C@@H]1NC(=O)[C@H]1CCC[C@@H]1N` [H12 RT] are 213 µM and 133 µM.
Take `CC(C)C[C@@H](CC(=O)N[C@H]1CCC[C@@H]1C(=O)N[C@H]1CCC[C@@H]1C(=O)N[C@@H](C)CC(=O)N[C@H]1CCC[C@@H]1C(=O)N[C@H]1CCC[C@@H]1C(N)=O)NC(=O)[C@H]1CCC[C@@H]1NC(=O)[C@H]1CCC[C@@H]1N` [H12 LA]: the Kd came out at 438 µM in assay [1] and 293 µM in assay [2].
The corresponding values for `CC[C@H](C)[C@@H](CC(=O)N[C@H]1CCC[C@@H]1C(=O)N[C@H]1CCC[C@@H]1C(=O)N[C@@H](C)CC(=O)N[C@H]1CCC[C@@H]1C(=O)N[C@H]1CCC[C@@H]1C(N)=O)NC(=O)[C@H]1CCC[C@@H]1NC(=O)[C@H]1CCC[C@@H]1N` [H12 IA] are 469 µM and 254 µM.
The matching figures for `NCCCC[C@@H](CC(=O)N[C@H]1CCC[C@@H]1C(=O)N[C@H]1CCC[C@@H]1C(=O)N[C@@H](CO)CC(=O)N[C@H]1CCC[C@@H]1C(=O)N[C@H]1CCC[C@@H]1C(N)=O)NC(=O)[C@H]1CCC[C@@H]1NC(=O)[C@H]1CCC[C@@H]1N` [H12 KS]: 298 µM and 224 µM.
The corresponding values for `NC(=O)[C@H]1CCC[C@@H]1NC(=O)[C@H]1CCC[C@@H]1NC(=O)C[C@H](CO)NC(=O)[C@H]1CCC[C@@H]1NC(=O)[C@H]1CCC[C@@H]1NC(=O)C[C@H](Cc1ccccc1)NC(=O)[C@H]1CCC[C@@H]1NC(=O)[C@H]1CCC[C@@H]1N` [H12 FS] are 268 µM and 310 µM.
Take `C[C@@H](CC(=O)N[C@H]1CCC[C@@H]1C(=O)N[C@H]1CCC[C@@H]1C(N)=O)NC(=O)[C@H]1CCC[C@@H]1NC(=O)[C@H]1CCC[C@@H]1NC(=O)C[C@H](CCCNC(=N)N)NC(=O)[C@H]1CCC[C@@H]1NC(=O)[C@H]1CCC[C@@H]1N` [H12 RA]: the Kd in assay [1] was determined as 485 µM; in assay [2], 205 µM.
Regarding `CC(C)[C@@H](CC(=O)N[C@H]1CCC[C@@H]1C(=O)N[C@H]1CCC[C@@H]1C(N)=O)NC(=O)[C@H]1CCC[C@@H]1NC(=O)[C@H]1CCC[C@@H]1NC(=O)C[C@H](Cc1ccc(O)cc1)NC(=O)[C@H]1CCC[C@@H]1NC(=O)[C@H]1CCC[C@@H]1N` [H12 YV], the Kd in assay [1] stood at 364 µM; in assay [2], 166 µM.
The corresponding values for `NC(=O)[C@H]1CCC[C@@H]1NC(=O)[C@H]1CCC[C@@H]1NC(=O)C[C@H](CCC(=O)O)NC(=O)[C@H]1CCC[C@@H]1NC(=O)[C@H]1CCC[C@@H]1NC(=O)C[C@H](Cc1c[nH]c2ccccc12)NC(=O)[C@H]1CCC[C@@H]1NC(=O)[C@H]1CCC[C@@H]1N` [H12 WE] are 256 µM and 229 µM.
With `CSCC[C@@H](CC(=O)N[C@H]1CCC[C@@H]1C(=O)N[C@H]1CCC[C@@H]1C(N)=O)NC(=O)[C@H]1CCC[C@@H]1NC(=O)[C@H]1CCC[C@@H]1NC(=O)C[C@H](CCCCN)NC(=O)[C@H]1CCC[C@@H]1NC(=O)[C@H]1CCC[C@@H]1N` [H12 KM], the Kd in assay [1] amounted to 282 µM; in assay [2], 153 µM.
The matching figures for `CSCC[C@@H](CC(=O)N[C@H]1CCC[C@@H]1C(=O)N[C@H]1CCC[C@@H]1C(=O)N[C@@H](C)CC(=O)N[C@H]1CCC[C@@H]1C(=O)N[C@H]1CCC[C@@H]1C(N)=O)NC(=O)[C@H]1CCC[C@@H]1NC(=O)[C@H]1CCC[C@@H]1N` [H12 MA]: 194 µM and 224 µM.
With `C[C@@H](CC(=O)N[C@H]1CCC[C@@H]1C(=O)N[C@H]1CCC[C@@H]1C(N)=O)NC(=O)[C@H]1CCC[C@@H]1NC(=O)[C@H]1CCC[C@@H]1NC(=O)C[C@H](Cc1ccc(O)cc1)NC(=O)[C@H]1CCC[C@@H]1NC(=O)[C@H]1CCC[C@@H]1N` [H12 YA], the Kd in assay [1] amounted to 222 µM; in assay [2], 95 µM.
As to `NCCCC[C@@H](CC(=O)N[C@H]1CCC[C@@H]1C(=O)N[C@H]1CCC[C@@H]1C(=O)N[C@@H](CC(=O)O)CC(=O)N[C@H]1CCC[C@@H]1C(=O)N[C@H]1CCC[C@@H]1C(N)=O)NC(=O)[C@H]1CCC[C@@H]1NC(=O)[C@H]1CCC[C@@H]1N` [H12 KD], the Kd is 289 µM in assay [1] and 149 µM in assay [2].
The corresponding values for `NCCCC[C@@H](CC(=O)N[C@H]1CCC[C@@H]1C(=O)N[C@H]1CCC[C@@H]1C(=O)N[C@@H](CCC(N)=O)CC(=O)N[C@H]1CCC[C@@H]1C(=O)N[C@H]1CCC[C@@H]1C(N)=O)NC(=O)[C@H]1CCC[C@@H]1NC(=O)[C@H]1CCC[C@@H]1N` [H12 KQ] are 293 µM and 300 µM.
Turning to `NC(=O)CC[C@@H](CC(=O)N[C@H]1CCC[C@@H]1C(=O)N[C@H]1CCC[C@@H]1C(N)=O)NC(=O)[C@H]1CCC[C@@H]1NC(=O)[C@H]1CCC[C@@H]1NC(=O)C[C@H](Cc1c[nH]c2ccccc12)NC(=O)[C@H]1CCC[C@@H]1NC(=O)[C@H]1CCC[C@@H]1N` [H12 WQ], the Kd in assay [1] was found to be 304 µM; in assay [2], 53 µM.
The matching figures for `CSCC[C@@H](CC(=O)N[C@H]1CCC[C@@H]1C(=O)N[C@H]1CCC[C@@H]1C(=O)N[C@@H](CCC(=O)O)CC(=O)N[C@H]1CCC[C@@H]1C(=O)N[C@H]1CCC[C@@H]1C(N)=O)NC(=O)[C@H]1CCC[C@@H]1NC(=O)[C@H]1CCC[C@@H]1N` [H12 ME]: 180 µM and 417 µM.
In the case of `N=C(N)NCCC[C@@H](CC(=O)N[C@H]1CCC[C@@H]1C(=O)N[C@H]1CCC[C@@H]1C(N)=O)NC(=O)[C@H]1CCC[C@@H]1NC(=O)[C@H]1CCC[C@@H]1NC(=O)C[C@H](CO)NC(=O)[C@H]1CCC[C@@H]1NC(=O)[C@H]1CCC[C@@H]1N` [H12 SR], the Kd is 402 µM in assay [1] and 123 µM in assay [2].
The matching figures for `C[C@@H](O)[C@@H](CC(=O)N[C@H]1CCC[C@@H]1C(=O)N[C@H]1CCC[C@@H]1C(N)=O)NC(=O)[C@H]1CCC[C@@H]1NC(=O)[C@H]1CCC[C@@H]1NC(=O)C[C@H](Cc1ccccc1)NC(=O)[C@H]1CCC[C@@H]1NC(=O)[C@H]1CCC[C@@H]1N` [H12 FT]: 254 µM and 86 µM.
Regarding `NC(=O)CC[C@@H](CC(=O)N[C@H]1CCC[C@@H]1C(=O)N[C@H]1CCC[C@@H]1C(N)=O)NC(=O)[C@H]1CCC[C@@H]1NC(=O)[C@H]1CCC[C@@H]1NC(=O)C[C@H](Cc1ccc(O)cc1)NC(=O)[C@H]1CCC[C@@H]1NC(=O)[C@H]1CCC[C@@H]1N` [H12 YQ], the Kd in assay [1] was 176 µM; in assay [2] it was 222 µM.
Take `C[C@@H](CC(=O)N[C@H]1CCC[C@@H]1C(=O)N[C@H]1CCC[C@@H]1C(=O)N[C@H](CC(=O)N[C@H]1CCC[C@@H]1C(=O)N[C@H]1CCC[C@@H]1C(N)=O)Cc1ccc(O)cc1)NC(=O)[C@H]1CCC[C@@H]1NC(=O)[C@H]1CCC[C@@H]1N` [H12 AY]: the Kd in assay [1] was found to be 422 µM; in assay [2], 318 µM.
The corresponding values for `NC(=O)[C@H]1CCC[C@@H]1NC(=O)[C@H]1CCC[C@@H]1NC(=O)C[C@H](CC(=O)O)NC(=O)[C@H]1CCC[C@@H]1NC(=O)[C@H]1CCC[C@@H]1NC(=O)C[C@H](Cc1ccc(O)cc1)NC(=O)[C@H]1CCC[C@@H]1NC(=O)[C@H]1CCC[C@@H]1N` [H12 YD] are 205 µM and 430 µM.
As for `CC(C)C[C@@H](CC(=O)N[C@H]1CCC[C@@H]1C(=O)N[C@H]1CCC[C@@H]1C(=O)N[C@@H](CCC(N)=O)CC(=O)N[C@H]1CCC[C@@H]1C(=O)N[C@H]1CCC[C@@H]1C(N)=O)NC(=O)[C@H]1CCC[C@@H]1NC(=O)[C@H]1CCC[C@@H]1N` [H12 LQ], the results for the Kd in assay [1] and in assay [2] were 446 µM and 348 µM, respectively.
